Measurements from patent US20240180849A1, “IMMUNOFUNCTIONAL CARRIER, METHODS OF USES, AND COMPOSITION MATTERS AS AN ANTITUMOR IMMUNOTHERAPY” (priority 2021, published 2024).

Columns and labels:
[1] = test system: BMDCs; assay: Cytotoxicity, propidium iodide staining; type: cell-based, mouse; conditions: at ≤PTX 2 μg/mL (and 2E′ 10 μg/mL)
Procedure: (§1) Bone marrow-derived dendritic cells (BMDCs) and bone marrow-derived macrophages (BMDMs) were differentiated from mouse bone marrow cells. The bone marrow was collected from the femur of female Balb/c or male C57BL/6 mice (7 weeks old), pipetted several times, and passed through a 100 and 40 μm cell strainer to obtain single-cell suspension. The cells were collected by centrifugation at 500 ref for 8 min, treated with ACK lysis buffer, rinsed, and cultured in Alpha minimum essential medium (MEM-Alpha, ribonucleosides, deoxyribonucleosides, 4 mM L-glutamine, 1 mM sodium pyruvate) supplemented with 100 units/mL penicillin, 100 μg/mL streptomycin, […] β-mercaptoethanol, 20 ng/ml murine GM-CSF and 20% fetal bovine serum. After 7 days, floating or loosely adherent cells were collected by centrifugation and identified as BMDC by APC anti-mouse CD11c antibody labeling. Adherent cells were identified as BMDM by FITC anti-mouse F4/80 antibody labeling.

[2] = test system: splenocytes; assay: Cytotoxicity, propidium iodide staining; type: cell-based, mouse; conditions: at ≤PTX 2 μg/mL (and 2E′ 10 μg/mL)
Procedure: The spleen was collected from healthy or tumor-bearing mice to isolate splenocytes. The collected spleens were cut into pieces and filtered through 70 μm and 40 μm cell strainers sequentially to obtain a single-cell suspension. The cell suspension was incubated with 1 mL ammonium-chloride-potassium (ACK) lysis buffer for 3 min to remove red blood cells.

[3] = test system: CT26 cells; assay: Cytotoxicity, MTT assay; type: cell-based, mouse
Procedure: CT26 cells, B16F10 cells, BMDC, or splenocytes were seeded in a 96 well plate at a density of 8,000 cells per well (CT26, B16F10) or 15,000 cells per well (BMBCs, splenocytes). […] After incubation for another 24 h, the cell cytotoxicity was measured by the MTT assay (CT26, B16F10) or propidium iodide (PI) staining (BMDC, splenocytes). […] The values of CI<1, CI=1, and CI>1 represent synergy, additivity, and antagonism, respectively^53.

[4] = test system: BMDCs and JAWSII DCs; assay: BMDC and JAWSII DC stimulation (maturation markers, flow cytometry); type: cell-based, mouse
[5] = test system: BMDCs and BMDMs; assay: Cytokine production from BMDC and BMDM (ELISA); type: cell-based, mouse; conditions: 24 h
Procedure: as §1
After 24 h incubation, the cells were collected, resuspended in staining buffer, incubated with Fc-blocking antibody for 15 min at 4° C., labeled with anti-mouse CD11c, CD86, CD40, and MHC-II antibodies for 20 min at 4° C., and analyzed by the BD Accuri C6 Flow Cytometer. […] After 24 h, the media were analyzed for IL-1β and TNF-α by ELISA (Invitrogen, Carlsbad, CA) according to the manufacturer's protocols.

[6] = target: T1, TLR-5 (Mus musculus, UniProt Q9JLF7); assay: TLR-5 activation assay, HEK-Blue mTLR5 reporter cells (SEAP); type: cell-based; conditions: TLR reporter cell line, colorimetric SEAP
T1 construct: host or cells: HEK-Blue mTLR5 cells
Procedure: (§2) TLR-5 activation was tested with HEK-Blue™ mTLR5 Cells, TLR-5 reporter cells (Invitrogen, Carlsbad, CA). The TLR-4 reporter cells were plated in a 96 well plate at a density of 100,000 cells per well in RPMI medium. The TLR-5 reporter cells were plated in a 96 well plate with a density of 25,000 cells per well in HEK-Blue™ Detection medium. […] The supernatant was collected for secreted embryonic alkaline phosphatase (SEAP) assay. The absorbance of SEAP was measured at 620 nm.

[7] = target: T2, TLR-4 (Homo sapiens, UniProt O00206); assay: TLR-4 activation assay, THP1-XBlue-MD2-CD14 reporter cells (SEAP); type: cell-based; conditions: at comparable concentrations
T2 construct: host or cells: THP1-XBlue-MD2-CD14 cells
Procedure: as §2

[8] = test system: CT26 and B16F10 cells; assay: CRT expression in tumor cells; type: cell-based, mouse
Procedure: 2×10^5 CT26 or B16F10 cells were seeded in a 6-well plate overnight. […] After 6 h or 24 h, the cells were collected, resuspended in staining buffer, incubated with anti-mouse CD16/32 antibody to block non-specific binding of the immunoglobulin to Fc receptors, and stained with Alexa Fluor 488-conjugated anti-CRT monoclonal antibody (ab196158, Abcam). The cells were incubated with 0.5 μg/mL propodium iodide for 1 min prior to the analysis with the BD Accuri C6 Flow Cytometer. For visualizing CRT exposure, 2×10^5 CT26 or B16F10 cells were seeded in a confocal dish, incubated with different treatments for 24 h, washed, stained in the same manner as above, and fixed with 4% paraformaldehyde. Confocal images of the fixed cells were taken with the Nikon A1R confocal microscope (Nikon America Inc., Melville, NY) after brief staining with 2 μg/mL Hoechst 33342.

[9] = test system: DCs or BMDMs co-cultured with CT26 or B16F10 cells; conditions: PTX-pretreated CT26 or B16F10 cells, with 7 μg/mL 2E′
Procedure: CT26 or B16F10 cancer cells were stained with Cell Tracker Green (Invitrogen, Carlsbad, CA) for 1 h and treated with 5 μg/mL PTX for 24 h. […] The co-cultured cells were collected, resuspended in staining buffer, and analyzed by the BD Accuri C6 Flow Cytometer or BD LSRFortessa Flow Cytometer (San Jose, CA, USA). DCs taking up the PTX-treated cancer cells (cancer cell^+ DC or macrophages) was quantified as the percentage of double-positive cells in Cell-Tracker Deep Red-stained BMDC, JAWSII DC or BMDM, and the phagocytized cancer cells as the percentage of double-positive cells in Cell Tracker Green-stained cancer cells.

[10] = test system: CT26 tumors; assay: Antitumor effects in Balb/c mice with bilateral CT26 tumors; type: in vivo; conditions: single IT injection, 1 mg 2E′ (+0.2 mg PTX) per mouse
Procedure: Tumors were established in both flanks simultaneously by subcutaneous inoculation. 1×10^6 of CT26 cells were innoculated in the flank of the right hind limb, and 3×10^5 of CT26 cells in the left flank of the same mouse. […] The sizes of the treated tumor and the non-treated tumor on the left side were measured with a digital caliper every other day, and tumor volumes were calculated as (width^2×length)/2.

[11] = test system: CT26 tumors; assay: Antitumor effects in Balb/c mice with CT26 tumors and delayed rechallenge(s) of live cells; type: in vivo
Source text: Tumor growth was monitored as described above. To test whether antitumor immunity was established, the mice surviving with complete tumor remission by 30 days from the treatment were rechallenged with 1×10^5 live CT26 cells on the contralateral flank. The mice resistant to the first rechallenge were challenged again with 2×10^6 live CT26 cells on 60 days from the treatment. In two separate experiments, surviving Balb/c mice were rechallenged once on 6 or 17 days after the treatment.

[12] = test system: B16F10 cells; conditions: 24 h incubation
Procedure: CT26 cells, B16F10 cells, BMDC, or splenocytes were seeded in a 96 well plate at a density of 8,000 cells per well (CT26, B16F10) or 15,000 cells per well (BMBCs, splenocytes). After 24 h incubation, the cell culture medium was replaced with fresh complete medium containing 2E, PEI, 2E′/PTX or 2E′/PTX/siPD-L1 treatments in different concentrations. After incubation for another 24 h, the cell cytotoxicity was measured by the MTT assay (CT26, B16F10) or propidium iodide (PI) staining (BMDC, splenocytes). For the MTT assay, the treatments were replaced with 100 μL of fresh complete medium and 15 μL of 5 mg/mL MTT solution. After 4 h incubation, 100 μL of stop/solubilization solution was added to the cells and incubated overnight. The absorbance of dissolved formazan was read by the SpectraMax M3 microplate reader (Molecular Devices, Sunnyvale, CA) at 560 nm. For PI staining, the treatments were removed and cells were rinsed with PBS, collected, and resuspended in 100 μL of cell staining buffer. Five microliters (40 ng) of PI staining solution was added to each sample immediately before the analysis by the BD Accuri C6 Flow Cytometer. The combination index (CI) was determined by Compusyn (Combosyn, Inc., Paramus, NJ). The values of CI<1, CI=1, and CI>1 represent synergy, additivity, and antagonism, respectively^53.

T2 sequence (O00206 24-839): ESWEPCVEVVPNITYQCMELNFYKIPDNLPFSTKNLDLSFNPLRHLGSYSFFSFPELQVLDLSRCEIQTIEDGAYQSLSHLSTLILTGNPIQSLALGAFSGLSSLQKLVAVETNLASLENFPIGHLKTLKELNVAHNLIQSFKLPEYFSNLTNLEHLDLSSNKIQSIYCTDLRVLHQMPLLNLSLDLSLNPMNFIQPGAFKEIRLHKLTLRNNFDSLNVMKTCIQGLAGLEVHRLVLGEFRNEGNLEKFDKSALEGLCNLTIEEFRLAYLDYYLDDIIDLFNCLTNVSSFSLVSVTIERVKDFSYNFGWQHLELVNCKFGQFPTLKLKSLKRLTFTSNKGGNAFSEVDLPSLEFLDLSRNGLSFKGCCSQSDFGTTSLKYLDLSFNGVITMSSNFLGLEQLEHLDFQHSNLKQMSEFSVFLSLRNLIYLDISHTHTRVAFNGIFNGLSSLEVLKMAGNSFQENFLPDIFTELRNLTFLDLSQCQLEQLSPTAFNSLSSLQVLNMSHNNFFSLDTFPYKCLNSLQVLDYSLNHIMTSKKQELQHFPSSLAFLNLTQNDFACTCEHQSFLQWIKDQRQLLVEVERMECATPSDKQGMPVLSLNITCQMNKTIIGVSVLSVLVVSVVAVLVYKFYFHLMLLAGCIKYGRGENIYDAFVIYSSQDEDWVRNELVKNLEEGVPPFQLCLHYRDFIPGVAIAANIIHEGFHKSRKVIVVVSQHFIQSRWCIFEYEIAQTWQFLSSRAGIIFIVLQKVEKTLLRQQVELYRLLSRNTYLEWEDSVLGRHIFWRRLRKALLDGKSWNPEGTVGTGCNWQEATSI
T2 sequence (Q9Y6Y9 17-160 partner limits assumed): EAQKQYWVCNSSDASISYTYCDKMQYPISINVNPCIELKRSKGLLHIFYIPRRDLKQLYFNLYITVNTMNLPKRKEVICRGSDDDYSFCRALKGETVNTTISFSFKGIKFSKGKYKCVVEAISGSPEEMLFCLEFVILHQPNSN
T1 sequence (Q9JLF7 27-859): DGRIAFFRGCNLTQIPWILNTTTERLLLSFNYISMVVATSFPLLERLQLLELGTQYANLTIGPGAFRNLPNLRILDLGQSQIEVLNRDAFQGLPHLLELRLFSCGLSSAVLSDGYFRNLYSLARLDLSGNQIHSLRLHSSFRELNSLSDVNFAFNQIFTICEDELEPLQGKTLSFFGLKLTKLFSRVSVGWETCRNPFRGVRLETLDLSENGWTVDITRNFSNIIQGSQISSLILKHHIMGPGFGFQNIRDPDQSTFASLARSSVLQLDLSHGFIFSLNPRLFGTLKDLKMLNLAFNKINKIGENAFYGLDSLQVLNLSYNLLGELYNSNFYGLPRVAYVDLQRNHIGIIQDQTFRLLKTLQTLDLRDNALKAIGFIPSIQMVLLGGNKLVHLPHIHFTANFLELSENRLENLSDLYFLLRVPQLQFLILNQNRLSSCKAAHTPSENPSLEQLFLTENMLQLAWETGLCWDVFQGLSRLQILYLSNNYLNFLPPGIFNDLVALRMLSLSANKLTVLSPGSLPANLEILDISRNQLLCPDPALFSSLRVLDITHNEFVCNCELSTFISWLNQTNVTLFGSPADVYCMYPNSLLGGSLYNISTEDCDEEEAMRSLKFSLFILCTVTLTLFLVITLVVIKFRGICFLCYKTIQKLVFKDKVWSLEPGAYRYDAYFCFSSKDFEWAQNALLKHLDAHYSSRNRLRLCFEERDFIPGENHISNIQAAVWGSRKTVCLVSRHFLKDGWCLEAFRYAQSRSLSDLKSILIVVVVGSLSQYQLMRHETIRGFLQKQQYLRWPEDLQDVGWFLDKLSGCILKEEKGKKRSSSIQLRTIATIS

TLR-5 signaling [6] | Compound | cytotoxicity to BMDCs [1] | cytotoxicity to splenocytes [2] | toxicity to CT26 cells relative to normal splenocytes [3] | toxicity to CT26 cells relative to BMDCs ([3]; 24 h incubation) | maturation of DCs ([4]; BMDCs, JAWSII DCs, 24 h) | immunostimulatory responses relative to PEI ([4]; all tests: DC maturation, TNF-α/IL-1β, TLR-5, CRT) | TNF-α and IL-1β production/secretion [5] | TLR-4 signaling [7] | cell surface calreticulin (CRT) exposure [8] | fractions of DCs or BMDMs taking up cancer cells and of cancer cells taken up [9] | growth of untreated distant tumors vs D5W [10] | mice with complete regression (CR) of the treated tumors [10] [%] | mice with CR (tumor-free) ([11]; 1 mg 2E′, 0.2 mg/mL PTX, 0.67 mg siRNA, single IT, n=8) [%] | animals with CR of the treated tumors ([11]; 1.4 mg 2E′ (+0.2 mg PTX) per mouse, single IT) [%] | tumor-free mice in which growth of rechallenged tumor was prevented ([11]; 1.4 mg 2E′ (+0.2 mg PTX), rechallenge with live CT26 cells day 17) | mice with growth of primary tumors inhibited ([11]; 2.7 mg 2E′ (+0.4 mg PTX) per mouse, single IT) [%] | mice with no tumor growth of untreated distant tumor ([11]; 2.7 mg 2E′ (+0.4 mg PTX), distant tumor inoculated 6 days after treatment) [%] | tumor growth after second rechallenge ([11]; 2×10^6 live CT26 cells) | toxicity to B16F10 cells relative to BMDCs [12]
 | CC(=O)O[C@H]1C(=O)[C@@]2(C)[C@H]([C@H](OC(=O)c3ccccc3)[C@]3(O)C[C@H](OC(=O)[C@H](O)[C@@H](NC(=O)c4ccccc4)c4ccccc4)C(C)=C1C3(C)C)[C@]1(OC(C)=O)CO[C@@H]1C[C@@H]2O [PTX, paclitaxel] | did not show significant cytotoxicity | did not show significant cytotoxicity |  |  |  |  |  |  |  |  |  |  |  |  |  |  |  |  | 
activated TLR-5 signaling | Polyethyleneimine-Lithocholic Acid Conjugate [2E′] |  |  | greater toxicity to CT26 cells than normal splenocytes | more toxic to CT26 and B16F10 cells than to bone marrow-derived DCs | induced the maturation of BMDCs and JAWSII DCs | induced greater responses than PEI | promoted the production | Neither 2E′ nor PEI activated TLR-4 signaling | exposed the cell surface calreticulin (CRT) | substantially increased | the difference was insignificant | 60 | 50 | 40 | one of the two | 57 | 57 | exponential tumor growth in 10-15 days after the second challenge | more toxic to CT26 and B16F10 cells than to bone marrow-derived DCs
